From US10787430B2, “Hemoglobin modifier compounds and uses thereof” (FronThera U.S. Pharmaceuticals LLC, priority 2016, dated 2020)
Where two headings read alike, the source gives them in different places.

How the values were obtained:
[1] = tested on: sickled HbSS whole blood (RBC sickling); assay: Anti-sickling assay in HbSS sickled blood under hypoxic induction; assay type: cell-based, human; conditions: HbSS whole blood 26% Hct, 20 mins hypoxic induction; 0.2 mM compounds (FIG. 2)
Experimental: Materials: • Blood collected after informed consent from sickle cell individuals. • HBS buffer: 10 mM HEPES, 145 mM NaCl, pH 7.4 • Hemox buffer: Buffer provided for the hemox analyzer • Control Compound stock solution in DMSO (50 mM) stored at RT • Control Compound work solution (CWS): 10 μl of DMSO was added by Hamilton to 90 μl of HBS buffer (20 mM Hepes, 145 mM NaCl, pH 7.4) to create a working solution with a final concentration of 5 mM drug and 10% DMSO). • Compound stock solution in DMSO (50 mM) stored at RT • Compound work solution (WS): 10 μl of DMSO was added by Hamilton to 90 μl of HBS buffer (20 mM Hepes, 145 mM NaCl, pH 7.4) to create a working solution with a final concentration of 5 mM drug and 10% DMSO). • DMSO buffer: 10% DMSO (DB), same as WS but without drug. This will be used to maintain DMSO the same for different drug incubations. Test Protocol:
Collect blood from Clinic: Blood were collected after informed consent according to an approved IRB protocol. • Run Advia 120 analysis on SCD blood, to determine Hct. • Dilute blood to 20% Hct with HBS to total volume of 3 ml. • This cell suspension (CS) will be used for all experiments.
Incubation • 1. 200 μl CS • 2. 200 μl CS+20 μl CWS (5 mM diluted 10 times=0.5 mM control final)−(1% DMSO) • 3. 200 μl CS+20 μl WS (5 mM diluted 10 times=0.5 mM control final)−(1% DMSO) • 4. 200 μl CS+8 μl WS (0.2 mM drug final)+DB−(1% DMSO) • Incubate 30 minutes at 37° C.
50 μl into 1 ml HBS+2% BSA buffer. Eight time points (0-20 minutes) at 2% oxygen, 10,000 events each)
The sickling runs provide sets samples that need to be run on the AMNIS image flow and are subsequently analyzed with pixel analysis software.
Drug was provided at 50 mM concentration in DMSO, and stored at room temperature until use. 10 μl of DMSO was added by Hamilton to 90 μl of HBS buffer (20 mM Hepes, 145 mM NaCl, pH 7.4) to create a working solution with a final concentration of 5 mM drug and 10% DMSO). Blood was collected from a sickle cell patient in EDTA anticoagulant. To 200 μl of whole blood, a 20 or 8 μl of working solution was added resulting in a final drug concentration of 0.5 mM or 0.2 mM respectively. The DMSO concentration in both was corrected to 1%. The final hematocrit was measured by ADVIA analysis to be 26%. […] The delta hemox (%) comparing Example 29e with GBT440 is shown in FIG. 1A (0.2 mM) and FIG. 1B (0.5 mM).
Anti-sickling is shown in FIG. 2 with M: maximum percentage of sickled cells during 20 mins of hypoxic induction, T: time needed to reach 50% of M, and Z: baseline percentage of sickled cells prior to hypoxic induction.

[2] = Pharmacokinetic study in rats (plasma and red blood cell); assay type: in vivo; conditions: male, Sprague-Dawley, rat, oral, 7.2 mg/kg
Experimental: Rats (Sprague-Dawley, male, 220-280 g) were dosed with GBT-440 (HCl salt) and one of three compounds corresponding to Example 27, 29, and 38. The rats received oral (7.2 mpk) doses of the compound. Rats were fasted overnight before the experiments and provided with food four hours after dosing. The oral dosing formulations was prepared as follows: approximately 10 mg of compound was weighed precisely to an appropriate size of container, to which was added 2 mL of vehicle 0.5% methylcellulose in water and 8 μL 0.5% sodium dodecyl sulfate. The mixture was then transferred into a glass vial, and volume adjusted to appropriate volume with 0.5% methylcellulose to obtain a final concentration of 0.72 mg·mL^−1, and then vortexed and sonicated briefly.
Whole blood sample collection: Blood samples ([…]) were collected at pre-dose, 15, 30 min, 1, 2, 4, 8, 12 and 24 h via jugular vein into tubes and anticoagulated with 3.2% TSC (trisodium citrate). The proportion of anticoagulant and blood was 1:9 (v/v). The sampling time was recorded accordingly. The tubes were gently inverted several times to ensure mixing. Then 10 μL doses of whole blood sample was transferred to a new EP tube and duplicated in wet ice.
Plasma sample collection: The remaining whole blood was processed by centrifugation at 5,500 rpm for 10 min. The supernate was collected. All these whole blood and plasma samples were kept below −20° C. for 1 h prior to analysis.
(§1) Plasma sample preparation: An aliquot of 20 μL of sample was transferred to sample treatment tube (1.5 mL EP tube), and then 100 μL ACN (0.5% FA) containing Verapamil, 5 ng·mL^−1 and Glibenclamide, 50 ng·mL^−1 for protein precipitation was added. The mixture was vortexed for 30 min, and then centrifuged at 13000 rpm for 5 min at room temperature. After that, 70 μL of supernatant was transferred to a 96-Well Plate, to which 70 μL of water added and then vortexed for 10 min at room temperature. An aliquot of 10 μL of this mixture was analyzied using LC-MS/MS.
as §1, with “Whole blood” for “Plasma”, “10” for “20”, “500” for “100”, “water was” for “water”, “analyzed” for “analyzied”
Plasma and red blood cell concentration-time data were processed by linear regression analysis. All pharmacokinetic parameters were calculated using non-compartment model of Pharsight Phoenix 6.3.
Red blood cell concentrations were calculated according to the method below: Mass balance equation: Cb·VB=Cp·Vp+CBC·VBC Where, Cb=Concentration of whole blood; VB=Volume of whole blood; Cp=Concentration of plasma; Vp=Volume of plasma; CBC=Concentration of blood cell; VBC=Volume of blood cell. VBC=H·VB, where H is the hematocrit number. Vp=(1−H)·VB

[2H]C([2H])(Oc1cccc(O)c1C=O)c1cncnc1-c1ccnn1C(C)C [Example 38, 2-hydroxy-6-((4-(1-isopropyl-1H-pyrazol-5-yl)pyrimidin-5-yl)methoxy-d2)benzaldehyde]
Reduction in % sickled cells compared to untreated [1]: −30.6%
AUC(0-t) ([2]; red blood cells, red blood cell (calculated by mass balance from whole blood and plasma), read-out: AUC0-24 h RBC): 1730 µg·h/mL
Cmax ([2]; red blood cells, red blood cell (calculated by mass balance from whole blood and plasma), read-out: Cmax RBC): 116 µg/mL
half-life ([2]; red blood cells, red blood cell, read-out: T1/2 RBC (converted)): 660 min
AUC(0-t) ([2]; plasma, read-out: AUC0-24 h Plasma): 10.7 µg·h/mL
Cmax ([2]; plasma, read-out: Cmax Plasma): 0.753 µg/mL
half-life ([2]; plasma, read-out: T1/2 Plasma (converted)): 660 min
